In patent US11672772B2, “Use of glycyrrhetinic acid, glycyrrhizic acid and related compounds for mitigation and/or treatment of pneumonitis/pneumonia/pulmonary fibrosis induced by virus infection and/or by chemical or biological agents” (priority 2020, dated 2023):

Columns and labels:
[1] = system: various chemicals-induced pneumonitis (Bleomycin, Cisplatin, 5-Fluorouracil, Mitomycin, Methotrexate, paraquat); test: Various chemicals-induced pneumonitis in ICR mice; type: in vivo; details: for lung index (lung wet weight/body weight) / WBC number in blood: ICR mice, different time points; for lung index (lung wet weight/body weight): various inhaled chemicals, gavage of GR or GA; for WBC number in blood: gavage 122 mg/kg/day of GR or 67 mg/kg/day of GA within one hour; for number of neutrophils: pneumonitis induced by anticancer agents; for NLR (ratio of neutrophils to lymphocytes): various chemicals-induced pneumonitis; for lymphocytes %: various chemicals-induced pneumonitis incl. 5-FU, BLM and Cisplatin
Osimertinib-pneumonitis = type: in vivo, human; details: GR 300 mg/day orally
Description: A patient with lung cancer was treated with Osimertinib (80 mg/day), targeting EGFR pathway. […] At this time point, GR (300 mg/day) was orally used and the extent of Osimertinib-pneumonitis was reduced after one month use of GR (FIG. 17 C). Six months after using GR, pneumonitis subsided while Osimertinib was continuously used to target EGFR pathway (FIG. 17 D).

[2] = system: TGFβ and Collagen I expression in lung tissue; test: Bleomycin-induced late lung damage, lung tissue q-PCR of pro-fibrosis molecules; type: in vivo, Mice; details: 5 weeks after inhalation
H1N1 A/FM/1/47 = test: H1N1-pneumonia (H1N1-flu model) in mice; type: in vivo, C57BL/6 mice
[3] = system: Bleomycin (BLM) pneumonitis; test: Bleomycin-induced pneumonitis in ICR mice (new inhalation method), left and right lung lobes; type: in vivo; details: for pathology HE staining of lung: BLM-pneumonitis, GR/GA treatment vs NS; for lung sizes and lung index (lung wet weight/body weight), left and right side: inhaled 110 ul of 5 mg/ml BLM, oral GR 122 mg/kg/day or GA 67 mg/kg/day, three weeks, vs saline (NS)
Description: (§1) The subject invention provides an easy-perform mouse model with inhalation of 110-130 ul of liquid dissolved with various chemicals (e.g., anti-cancer drug or toxic paraquat) deep into whole lung to induce chemicals-pneumonitis. Compared with currently used intratracheal instillation, this new method is more quick (finished within 3 minutes) and non-invasion without surgically exposing the trachea. It delivers agents using a micropipette into the trachea at the back of the throat and allows the mouse to inhale into the lung with operator help for liquid deep-even distribution in the whole lung. This easy operation can quickly set-up for more than one hundred mice with chemicals-pneumonitis, providing enough mice for the screening or validating of various chemical or biological agents for anti-lung inflammation/infection to meet clinical needs.
(§2) A. After anesthesia, a rubber band was attached to the front teeth of the mice, and the mouse body was vertically upright. The tip of the tongue was pulled out with forceps, and 100-130 ul of liquid reagent was dripped into the upper part of the trachea at the back of the throat. The reagent was naturally inhaled into the mouse lung. […] Entire process was about one minute.
(§3) B. The mouse held firmly in the hands of the operator, moved up and down for 3-5 times to let the liquid moving deep into the lung, rotated around for 2-3 circles and repeated for 3 times to let the liquid evenly distributed in the lung. Entire process was about one minute.
Then, the mice were randomly divided into three groups (6 mice/group) and orally given different agents: 1) NS: vehicle of saline; 2) GR: 122 mg/kg/day of GR; 3) GA: 67 mg/kg/day of GA. Three weeks later, mice were sacrificed and the lung lobes of left and right sides were harvested separately.

BLM-pneumonitis = BLM-pneumonitis in C57BL/6 mice; type: in vivo; details: for mitigation/treatment effect on the severity of BLM-pneumonitis: 3 week period, compared with Dexamethasone; for neutrophils % / lymphocytes % / number of lymphocytes: C57BL/6 mice with BLM-pneumonitis; for lymphocytes % / number of lymphocytes: vs saline-treated; for body weight / dose as low as which could reduce the severity of BLM-pneumonitis: C57BL/6 mice; for body weight: BLM, oral Dexamethasone 1, GR 70, GA 22 mg/kg/day, 2 weeks; for dose as low as which could reduce the severity of BLM-pneumonitis: oral
Description: as §1, §2, §3
C57BL/6 mice (8 weeks, male) were anesthetized and inhalated 110 ul of 5 mg/ml Bleomycin (BLM) to induce BLM-pneumonitis (new method in FIG. 2). Then, the mice were randomly divided into groups (7 mice/group) and orally given different agents: 1) Normal: as time control without any treatment; 2) NS: treated with saline as vehicle control (all agents in saline); 3) Dexamethasone: 1 mg/kg/day of Dexamethasone; 4) GR: at the indicated three different doses of GR; 5) GA: at the indicated three different doses of GA. Due to the severe BLM-pneumonitis, the inflammatory factors (such as MPO, IL 6 etc.) were released to cause acute reactions: dilation of alveolar capillaries, increased permeability, plasma exudation, blood cells entering the lung interstitium/alveoli, resulting in an increased wet weight of whole lung. The lung index was calculated as: whole lung wet weight/body weight. The higher of lung index, the severer of pneumonitis.
C57BL/6 mice (8 weeks, male) were anesthetized and inhalated 110 ul of 5 mg/ml Bleomycin (BLM) to induce BLM-pneumonitis (new method in FIG. 2). Then, the mice were randomly divided into four groups and orally given different agents: 1) NS: vehicle of saline; 2) Dexamethasone: 1 mg/kg/day of Dexamethasone; 3) GR: 70 mg/kg/day of GR; 4) GA: 22 mg/kg/day of GA. Due to the severe lung inflammation, the body weights of mice were lost during 2 weeks.

H22 liver cancer = test: Tumor growth in ICR mice bearing H22 liver cancer; type: in vivo; details: GA 40 mg/kg
Description: To determine if GR/GA are used for mitigation/treatment of anti-cancer drugs induced pneumonitis has any blocking effect on anticancer, the GA (40 mg/kg) was used in ICR mice bearing with aggressive H22 liver cancer.

H22 tumor = test: H22 tumor-bearing mice treated with active immunotherapy (H22 vaccine) with GA; type: in vivo
Description: To determine if GA affects the anti-cancer immunotherapy, the H22 tumor-bearing mice were immunized with H22 vaccine, and GA (40 mg/kg) was used for anti-inflammation. The traditional Aspirin (60 mg/kg) was used as drug-control.

[4] = Pharmacokinetics (PK) after oral GR or GA, plasma LC-MS/MS; type: in vivo; details: ICR mice, 400 mg/kg of GR or 224 mg/kg of GA (equal mole)
Description: After oral taken, it is converted into GA, an aglycone, fat soluble and easily absorbed through double lipid layer. Therefore, we propose that their pharmacokinetics (PK) should be different. […] 100 μl of plasma was added with 30 μl internal standard solution (100 ng/ml) and then 0.5 ml ethyl acetate. The mixture was vortex mixed for 3 min, centrifuged at 14 000×g for 15 min, and then removed 470 μl of supernatant to dry. After re-dissolved in 100 μl of acetonitrile-water (80[…]20, V/V, mobile phase agent), 20 μl was used for LC-MS/MS analysis.

[5] = system: IL6 and MPO expression in lung tissue; test: Bleomycin+Paraquat-induced pneumonitis, lung tissue q-PCR of acute inflammation molecules; type: in vivo; details: ICR mice, Bleomycin then paraquat 2 weeks later; sacrificed after 2 weeks
Description: ICR mice were inhalated with 130 ul of 5 mg/ml, and then 2 week later 0.1 mg/ml of paraquat with mitigation using GR or GA. After 2 weeks, mice were sacrificed and the lung tissue were examined with q-PCR for the expression of acute inflammation molecules, such as IL6 and MPO.

## CC1(C)[C@@H](O[C@H]2O[C@H](C(=O)O)[C@@H](O)[C@H](O)[C@H]2O[C@@H]2O[C@H](C(=O)O)[C@@H](O)[C@H](O)[C@H]2O)CC[C@]2(C)[C@H]3C(=O)C=C4[C@@H]5C[C@@](C)(C(=O)O)CC[C@]5(C)CC[C@@]4(C)[C@]3(C)CC[C@@H]12 [GR, glycyrrhizic acid]
[1]
  lung index (lung wet weight/body weight): significantly reduced
  WBC number in blood: reduced
  number of neutrophils: reduced
  NLR (ratio of neutrophils to lymphocytes): reduce
  lymphocytes %: increased
Osimertinib-pneumonitis; after one month
  extent of Osimertinib-pneumonitis: reduced
Osimertinib-pneumonitis; six months, Osimertinib continued
  Osimertinib-pneumonitis: subsided
[2]
  Collagen I expression in lung tissue (q-PCR): reduced
  TGFb expression in lung tissue (q-PCR): reduced
H1N1 A/FM/1/47; H1N1-pneumonia, vs NS
  lymphocytes number: increased it in greater degree than Ribavirin
  neutrophils %: reduced them in greater degree than Ribavirin
  neutrophils number: reduced them in greater degree than Ribavirin
H1N1 A/FM/1/47; day 7, 2×LD50 virus, GR 70 mg/kg gavage once a day
  lung index: acted like Ribavirin to reduce the lung index
H1N1 A/FM/1/47; day 7 of infection
  lymphocytes %: slightly increased
H1N1 A/FM/1/47; day 12
  IFNg level: much less than that in NS and Ribavirin group
  MCP-1 level: reduces MCP-1 to a normal level
  WBC number: reduced WBC number greater than Ribavirin
  lymphocytes %: significantly increased
  ratio of neutrophils to lymphocytes (NLR): reduced
  spleen index: reduced spleen index
H1N1 A/FM/1/47; day 12, 1×LD50 virus
  lung index: still had a reduced lung index
[3]
  pathology HE staining of lung: less inflitration of inflammation cells and better lung structure
  lung sizes and lung index (lung wet weight/body weight), left and right side: significantly reduced
BLM-pneumonitis
  mitigation/treatment effect on the severity of BLM-pneumonitis: better than Dexamethasone
  neutrophils %: greatly reduced
  lymphocytes %: increased almost to the normal level
  number of lymphocytes: increased
  body weight: helped mice to maintain their body weight
  dose as low as which could reduce the severity of BLM-pneumonitis: ≤ 40 mg/kg/day

## glycyrrhetinic acid [GA]
[1]
  lung index (lung wet weight/body weight): significantly reduced
  WBC number in blood: reduced
  number of neutrophils: reduced
  NLR (ratio of neutrophils to lymphocytes): reduce
  lymphocytes %: increased
H22 liver cancer
  growth of tumor: could reduce the growth of cancer in vivo
[2]
  Collagen I expression in lung tissue (q-PCR): reduced
  TGFb expression in lung tissue (q-PCR): reduced
H1N1 A/FM/1/47; day 12
  WBC number: reduced WBC number greater than Ribavirin
  lymphocytes %: significantly increased
H22 tumor; 80 day follow-up, tumor-bearing mice treated with H22 vaccine and GA
  survival: could prolong the survival time of mice
H22 tumor; GA 40 mg/kg with H22 vaccine
  effect of combination use on the anti-tumor effect of H22 vaccine: not affected
[4]
  Tmax: 30 min
[3]
  pathology HE staining of lung: less inflitration of inflammation cells and better lung structure
  lung sizes and lung index (lung wet weight/body weight), left and right side: significantly reduced
BLM-pneumonitis
  mitigation/treatment effect on the severity of BLM-pneumonitis: better than Dexamethasone
  neutrophils %: greatly reduced
  lymphocytes %: increased almost to the normal level
  number of lymphocytes: increased
  body weight: helped mice to maintain their body weight
  dose as low as which could reduce the severity of BLM-pneumonitis: ≤ 22 mg/kg/day
[5]
  IL6 expression in lung tissue (q-PCR): reduces
  MPO expression in lung tissue (q-PCR): reduces
